Results as given in patent publication US20210379063A1, “ORAL AMINODIHYDROPHTHALAZINEDIONE COMPOSITIONS AND THEIR USE IN THE TREATMENT OF NON-VIRAL HEPATITIS” (Immunopharma Plus D.O.O., priority 2018, published 2021).
“And” between values parts separate entries of the source, which are not always exact repeats. Equal values may be shown once. Read-outs that look alike come from different tables or passages of the source.

Key:
[1] = tested on: reparative liver regeneration after partial hepatectomy
Description: Reparative liver regeneration was caused by the removal of ⅔ mass of the organ—partial hepatectomy by G. M. Higgis, R. M. Anderson.

[2] = tested on: hepatitis caused by pesticides
Description: Clinically, this is manifested by pallor, fatigue, shortness of breath on exertion, hypoxia of the organs, respectively, and of the organism as a whole. The lipid peroxidation that develops at the same time causes tissue damage, and in response, macrophages infiltrate and generate oxygen radicals and pro-inflammatory cytokines (TNF, IL, etc.), thereby contributing their destructive potential to the development of the pathological process.

porcine stomach (cardia) = settings: 10 mM donor solution
[3] = tested on: acute experimental hepatitis, tetrachloromethane (CCL4)
Procedure: Acute experimental hepatitis that develops with the introduction of tetrachloromethane (CCL4) is a classic model for studying the mechanisms of reparative regeneration of the liver after exposure to various chemical toxicants.
The experiments were carried out on male Wistar rats weighing 200-220 g, in accordance with the recommendations of the international ethics committees on the humane treatment of laboratory animals (EU Council Directive 86/609 EEC dated Nov. 24, 1986). Carbon tetrachloride (CCL4), was administered to the animals intraperitoneally once at a dose of 50 mg/kg of body weight. […] The animals were sacrificed on the 3rd, 7th day after the simulation of toxic hepatitis.

[4] = remark: listed apart in the source
Procedure: Title: FaSSGF: Fasted State Simulating Gastric Fluid
Preparation FaSSGF (for 2000 ml)
Name: FeSSGF: Fed State Simulating Gastric Fluid
Name: FaSSIF Fasted State Simulating Intestinal Fluid
Name: FeSSIF Fed State Simulating Intestinal Fluid
For preparation of 2 L media
Name: SCoF (Simulated Colonic Fluid)
Preparation of 100 ml solution
Prior to testing • Lactobacilli drops (100 million per dissolution/20 million per permeation donor compartment) added
Each presented dissolution data is a summary of 3 results.

macrophages = settings: cited from earlier work
porcine small intestine = settings: for concentration in receptor compartment, small intestine, AVG / concentration in receptor compartment, small intestine: 10 mM donor solution; for concentration in receptor compartment, small intestine: single chambers
Procedure: Porcine Small Intestinal (SI) Permeability Procedure • Full thickness pig small intestinal delivered to Solubest on the day of the experiment. • Experiments were carried out on 6 slices 2 cm*2 cm with full thickness pig small intestinal sample • The intestinal was prepared so brush border side is facing the donor compartment. • According to Solubest protocol the excess mucus and connective tissue were removed • The receiver compartment contains 0.01M Phosphate Buffer pH 7.4 (PBS). • Receiver's samples were withdrawn at 5 time points (30 min, 60 min, 120 min, 4 hours and 6 hours). • Water pump was set to temp 38±1° C. in order to keep fixed temp in receptor department at 37±1° C.

[5] = tested on: Toxic hepatopathy degree II
Procedure: The patient received standard hepatic therapy: Duphalac 50 ml 3 times a day, Hepasol A 1000 ml, Heptral 800 mg. Detoxification therapy was carried out. […] The patient was monitored for another 1 month in a poison center.

[6] = tested on: liver after introduction of carrageenan; settings: for ALT, units/l / AST, units/l: carrageenan + Tamerit
Procedure: The experiments were carried out on 25 male Wistar rats weighing 200-220 g, in accordance with the recommendations of the international ethics committees on the humane treatment of laboratory animals (EU Council Directive 86/609 EEC dated Nov. 24, 1986). […] Its mechanism of action is based on the inhibition of the process of phagocytosis and the activity of lysosomal hydrolases of mononuclear phagocytes. The drug was administered intragastrically through a probe in an aqueous solution at a dose of 10 mg/kg. The choice of time frame (4, 17 hours after surgery) corresponds to the phases of liver regeneration.

[7] = CCl4 3rd day + Tamerit 2 mg/kg intramuscularly
[8] = CCl4 7th day + Tamerit 2 mg/kg intramuscularly
[9] = per os, enteric coated tablets, with standard hepatic therapy

With `Nc1cccc2c(=O)[n-][nH]c(=O)c12.[Na+]` [Tamerit, aminodihydrophthalazinedione sodium] the “Mitotic index, %” value ([1]; hepatectomy 4 hours + Tamerit) was 2 ± 0.8 %, the Nuclear cytoplasmic index ([1]; hepatectomy 4 hours + Tamerit) was 0.40 ± 0.005 and the “Number of binuclear cells, %” value ([1]; hepatectomy 4 hours + Tamerit) was 16.6 ± 1.69%. For the same compound, the “The size of the nucleus of hepatocytes, μm” value ([1]; hepatectomy 4 hours + Tamerit) was 8.0 ± 0.26 μm, the “Mitotic index, %” value ([1]; hepatectomy 17 hours + Tamerit) was 5.5 ± 1.3 % and the Nuclear cytoplasmic index ([1]; hepatectomy 17 hours + Tamerit) was 0.319 ± 0.01. The “Number of binuclear cells, %” value ([1]; hepatectomy 17 hours + Tamerit) was 29.83 ± 2.5 %, the “The size of the nucleus of hepatocytes, μm” value ([1]; hepatectomy 17 hours + Tamerit) was 7.67 ± 0.28 μm and the “increase of the number of hepatocytes that divide by mitosis” value ([1]; regenerating liver) was “by an order of magnitude”. For the same compound, the “AST and ALT” value ([2]; after the end of treatment, AST-80, ALT-98 before) was “within normal limits”, the Hemoglobin ([2]; at discharge after enteric-coated 100 mg tablets, 89 before) was 120 and the “patient's condition” value ([2]; third day from the start of treatment) was “improved”. The “state of a solution containing 10 mM” value was “supersaturated solution”, the “concentration in receptor compartment, Tamerit stomach, AVG” value (shortened to “concentration … Tamerit stomach, AVG”) (porcine stomach (cardia); 0 min) was 0.000 µg/mL and the “concentration in receptor compartment, Tamerit stomach” value (porcine stomach (cardia); 0 min, single chambers) was 0 µg/mL. The “concentration … Tamerit stomach, AVG” value (porcine stomach (cardia); 15 min) was 0.050 µg/mL, the “concentration … Tamerit stomach, AVG” value (porcine stomach (cardia); 30 min) was 0.041 µg/mL and the “concentration … Tamerit stomach, AVG” value (porcine stomach (cardia); 45 min) was 0.069 µg/mL. The “concentration … Tamerit stomach, AVG” value (porcine stomach (cardia); 90 min) was 0.085 µg/mL, the “concentration … Tamerit stomach, AVG” value (porcine stomach (cardia); 120 min) was 0.104 µg/mL and the “ALT, U/L” value [3, 7] was 9.1 ± 1.6 U/L. For the same compound, the “AST, U/L” value [3, 7] was 10.0 ± 2.0 U/L, the “BCL, quant” value [3, 7] was 186.0 ± 7.0 quant and the “ALT, U/L” value [3, 8] was 7.12 ± 0.20 U/L. For the same compound, the “AST, U/L” value [3, 8] was 8.53 ± 0.13 U/L, the “BCL, quant” value [3, 8] was 171 ± 18 quant and the “effect on inflammatory reaction in toxic hepatitis” value ([3]; early stages of toxic hepatitis by tetrachloromethane) was “reduces the severity of the inflammatory reaction”. The “Dissolution, %” value ([4]; FaSSGF pH 1.6, 15 min) was 88.24%, the “Dissolution, %” value ([4]; FaSSGF pH 1.6, 30 min) was 90.68% and the “Dissolution, %” value ([4]; FaSSIF pH 6.5, 30 min, sodium) was 98.62%. For the same compound, the “Dissolution, %” value ([4]; FaSSIF pH 6.5, 60 min) was 103.11%, the “Dissolution, %” value ([4]; FaSSIF pH 6.5, 90 min) was 102.16% and the “Dissolution, %” value ([4]; FaSSIF pH 6.5, 120 min) was 102.37%. The “Dissolution, %” value ([4]; FaSSIF pH 6.5, 180 min) was 103.78%, the Dissolution, % ([4]; FeSSCoF pH 6.0, 15 min, sodium) was 90% and 90.07% and the Dissolution, % ([4]; FeSSCoF pH 6.0, 2 hr) was 89.21%. For the same compound, the Dissolution, % ([4]; FeSSCoF pH 6.0, 4 hr, sodium) was 100% and 102.12%, the Dissolution, % ([4]; FeSSCoF pH 6.0, 24 hr) was 95.77% and the “Dissolution, %” value ([4]; FeSSGF pH 5.0, 15 min) was 86.83%. For the same compound, the “Dissolution, %” value ([4]; FeSSGF pH 5.0, 30 min) was 77.65%, the “Dissolution, %” value ([4]; FeSSGF pH 5.0, 45 min) was 75.6% and the “Dissolution, %” value ([4]; FeSSGF pH 5.0, 90 min) was 79.42%. The “Dissolution, %” value ([4]; FeSSIF pH 5.0, 30 min) was 79.65%, the “Dissolution, %” value ([4]; FeSSIF pH 5.0, 60 min) was 69.28% and the “Dissolution, %” value ([4]; FeSSIF pH 5.0, 90 min, sodium) was 90% and 87.40%. The “Dissolution, %” value ([4]; FeSSIF pH 5.0, 120 min) was 84.48%, the “Dissolution, %” value ([4]; FeSSIF pH 5.0, 180 min) was 88.50% and the “pH at which Tamerit is the most soluble” value ([4]; Tamerit powder dissolution, FIG. 2) was 6.5. For the same compound, the stability ([4]; colonic conditions) was “very stable”, the stability ([4]; fast and fed conditions of the small intestinal) was “quite stable” and the stability ([4]; fast and fed gastric conditions) was “sufficient stability”. For the same compound, the dissolution ([4]; fast gastric media) was about 90%, the dissolution ([4]; fed gastric media) was 80-90% and the “duration of reversible suppression of macrophage hyperactivity” value (macrophages; acute inflammatory diseases) was 10 to 12 h. The excretion (macrophages) was “rapidly excreted”, the toxicity (macrophages) was “extremely low toxicity” and the “concentration in receptor compartment, small intestine, AVG” value (“concentration … small intestine, AVG” below) (porcine small intestine; 0 min) was 0 µg/mL. The “concentration in receptor compartment, small intestine” value (porcine small intestine; 0 min) was 0 µg/mL, the “concentration … small intestine, AVG” value (porcine small intestine; 30 min) was 1 µg/mL and the “concentration … small intestine, AVG” value (porcine small intestine; 60 min) was 3 µg/mL. For the same compound, the “concentration in receptor compartment, small intestine” value (porcine small intestine; 60 min, sodium) was 3.5 µg/mL and 2.4 µg/mL, the “concentration … small intestine, AVG” value (porcine small intestine; 120 min) was 6 µg/mL and the “concentration in receptor compartment, small intestine” value (porcine small intestine; 120 min, sodium) was 5.4 µg/mL and 5.6 µg/mL and 9.1 µg/mL and 5.1 µg/mL. For the same compound, the “concentration … small intestine, AVG” value (porcine small intestine; 240 min) was 12 µg/mL, the “concentration … small intestine, AVG” value (porcine small intestine; 360 min) was 23 µg/mL and the “concentration in receptor compartment, small intestine” value (porcine small intestine; 360 min, sodium) was 26.4 µg/mL and 19.5 µg/mL and 28.7 µg/mL and 19 µg/mL. For the same compound, the “Tamerit Permeability vs Propranolol Permeability” value (porcine small intestine; small intestine, FIG. 11) was “permeates better than propranolol”, the “permeation compared with Propranolol” value (porcine small intestine; small intestine, after 4 hours) was “three time better than Propranolol” and the adverse effects ([5]; during the use of Tamerit) was “no adverse effects were noted”. For the same compound, the blood biochemical parameters [5, 9] was “fully normalized”, the “relief of symptoms of intoxication” value [5, 9] was “highly effective” and the “Mitotic index, %” value ([6]; Carrageenan 4 hours + Tamerit) was 0.65 ± 0.25 %. The Nuclear cytoplasmic index ([6]; Carrageenan 4 hours + Tamerit) was 0.36 ± 0.01, the “Number of binuclear cells, %” value ([6]; Carrageenan 4 hours + Tamerit) was 25.0 ± 3.58 % and the “Mitotic index, %” value ([6]; Carrageenan 17 hours + Tamerit) was 0.48 ± 0.12 %. For the same compound, the Nuclear cytoplasmic index ([6]; Carrageenan 17 hours + Tamerit) was 0.35 ± 0.02, the “Number of binuclear cells, %” value ([6]; Carrageenan 17 hours + Tamerit) was 29.2 ± 4.18 % and the activity of aminotransferases ([6]; after carrageenan) was “completely restores the activity of aminotransferases to the parameters of healthy animals”. The “ALT, units/l” value ([6]; 4 hours) was 40.2 ± 4.0 units/l, the “AST, units/l” value ([6]; 4 hours) was 85.4 ± 8.0 units/l and the “ALT, units/l” value ([6]; 17 hours) was 42.2 ± 3.5 units/l. The “AST, units/l” value ([6]; 17 hours) was 83.5 ± 4.5 units/l.
